Results taken from patent US20100075894A1, “REDUCING ER STRESS IN THE TREATMENT OF OBESITY AND DIABETES” (HARVARD UNIVERSITY, priority 2004, published 2010).
Entries after “also recorded” stand apart in the source; their conditions may differ.

How the values were obtained:
ob/ob mice [1] = experiment: sodium 4-phenylbutyrate and metformin in ob/ob mice: fed blood glucose; format: in vivo, mouse; details: oral gavage daily, 200 mg/kg/day (each), fed state
Description: Experiments are performed using the ob/ob genetic model of obesity and insulin resistance (C57B6. V-Lepob/OlaHsd mice were purchased from Harlan Teklad, Madison, Wis.). At seven weeks of age, treatments were started after acclimatization for 5 days by administration of PBS. After this period, PBS, sodium 4-phenylbutyrate (200 mg/kg/day), metformin (200 mg/kg/day), and sodium 4-phenylbutyrate plus metformin (200 mg/kg/day each) were administered into four separate experimental groups of mice (with at least six mice in each group) by oral gavage daily. […] Blood glucose levels were measured at the fed state at 8:00 AM.

Fao liver cells = experiment: ER stress inducers and insulin action in Fao liver cells; format: cell-based, rat; details: Fao cells, FIG. 12A
Description: (A) ER stress was induced in Fao liver cells by a 3-hour treatment with 5 μg/ml tunicamycin (Tun). Cells were subsequently stimulated with insulin (Ins). IRS-1 tyrosine and serine (Ser307) phosphorylation, Akt phosphorylation (Ser473), insulin receptor (IR) tyrosine phosphorylation, and their total protein levels were examined using either immunoprecipitation (IP) followed by immunoblotting (IB) or direct immunoblotting. (B) Quantitation of IRS-1 (tyrosine and Ser307), Akt (Ser473), and IR (tyrosine) phosphorylation under the experimental conditions described in (A) with normalization to protein levels for each molecule. (C) Inhibition of ER stress-induced (300 nM thapsigargin for 4 hours) Ser307 phosphorylation of IRS-1 by JNK-1 inhibitor, SP600125 (JNKi, 25 μM), (D) Quantitation of IRS-1 Ser307 phosphorylation under conditions described in (C). (E) Reversal of ER stress-induced inhibition of insulin-stimulated tyrosine phosphorylation (pY) of IRS-1 by a JNK inhibitor. (F) Quantitation of insulin-induced IRS-1 tyrosine phosphorylation levels described in (E). (G) JNK activity, Ser307 phosphorylation of IRS-1, and total IRS-1 levels at indicated times following tunicamycin treatment (Tun, 10 μg/ml for 1 hour) in IRE-1α^+/+ and IRE-1α^−/− fibroblasts. (H) Insulin-stimulated IRS-1 tyrosine phosphorylation and total IRS-1 levels following tunicamycin treatment (Tun, 10 μg/ml for 1 hour) in IRE-1α^+/+ and IRE-1α^−/− fibroblasts. […] All graphs show mean±SEM from at least 2 independent experiments and statistical significance from the controls is indicated by * with p<0.005.
(A) ER stress was induced in Fao cells by 1 hour treatment with 300 nM thapsigargin (Thap), and cells were subsequently stimulated with insulin (Ins). IRS-1 tyrosine phosphorylation (pY) and serine phosphorylation (pSer307), insulin receptor (IR) tyrosine phosphorylation, and total protein levels were examined using either immunoprecipitation (IP) followed by immunoblotting (IB) or direct immunoblotting. (B) Fao cells were treated with sulindac sulfide (SS: 0, 7.5, 30, and 60 μM) for 45 minutes with or without an additional hour of exposure to 300 nM thapsigargin (Thap). IRS-1 serine phosphorylation and total IRS-1 protein levels were examined as described above.
To investigate whether ER stress interferes with insulin action, we pretreated Fao liver cells with tunicamycin and thapsigargin, agents commonly used to induce ER stress. […] IRS-1 is a substrate for insulin receptor tyrosine kinase and serine phosphorylation of IRS-1, particularly mediated by JNK, reduces insulin receptor signaling (Hirosumi et al., Nature 420:333 (2002); incorporated herein by reference).
Cells: Rat Fao liver cells were cultured with RPMI 1640 (Gibco, Grand Island, N.Y.) containing 10% fetal bovine serum (FBS). […]

ob/ob mice [2] = experiment: TMAO in ob/ob mice: fed blood glucose, serum insulin; format: in vivo, mouse
Description: Experiments were performed using the ob/ob genetic model of obesity and insulin resistance (C57BL/6J-Lep-ob mice purchased from Jackson Laboratory, Bar Harbor, Me.). At seven weeks of age, treatments were started after acclimatization for 5 days by administration of PBS. After this period, TMAO (Sigma, T0514) was dissolved in PBS and administered by intraperitoneal (IP) injection every 24 hours at a dose of 1 g/kg/day. At the indicated days, fed blood glucose levels were measured at 8:00 AM using an automated glucometer system. For insulin measurements, blood samples were collected after 6 hours of fasting and serum insulin levels were determined using a specific ELISA (Crystal Chem, 90060). Each treatment group contained at least six animals per experimental group.

ER stress = ER stress markers in animals, western blot after treatment with the compound; format: in vivo; details: for ER stress: overall statement; for activation of JNK / phosphorylation of IRE-1α / phosphorylation of PERK: animals treated with the compound, western blot
Excerpt: (§1) For example, obesity increases the demand on the synthetic machinery of the cell in many secretory organ systems and is also associated with abnormalities in intracellular energy fluxes and nutrient availability. The present invention stems from the recognition that many of these diseases associated with obesity cause ER stress, particularly in peripheral tissues, and that ER stress is involved in triggering insulin resistance and type 2 diabetes, two sequelae of obesity. […] The agents useful in the treatment of these diseases include small molecules, proteins, nucleic acids, and any other chemical compounds known to reduce or prevent ER stress. These agents make act in any manner that reduces or prevents ER stress such as reducing the production of mutant or misfolded proteins, increasing the expression of ER chaperones, increasing the stability of proteins, boosting the processing capacity of the ER, etc. Particularly useful agents include chemical chaperones such as 4-phenyl butyrate (PBA), tauroursodeoxycholic acid (TUDCA), trimethylamine N-oxide (TMAO), glycerol, D2O, dimethylsufloxide, glycine betaine, methyl amines, and glycerophosphocholine. […] The agents may be administered in any manner known in the drug delivery art although preferably the agent is delivered orally or parenterally. Dose ranges for these agents depend on the agent being delivered as well as other factors but will typically be from 10 mg/kg/day to 10 g/kg/day.

ob/ob mice [3] = experiment: TUDCA in ob/ob mice: blood glucose, ITT; format: in vivo, mouse
Description: 9-10 weeks old ob/ob and their age and sex matched lean controls were used to analyze the effects of TUDCA on glucose metabolism and diabetes. After acclimation with PBS injection (once a day, 200 μl i.p. injection) for 4 days, mice were injected intraperitoneally with TUDCA (500 mg/kg once a day in 200 μl of PBS) (n=6 for lean and n=7 for ob/ob) and PBS (200 μl) (n=6 lean and n=7 for ob/ob). Blood glucose levels on the 4th, 7th, and 10th days after first injection (a). ITT on 10 days after the first injection (b).

[4] = tested on: insulin receptor signaling; experiment: insulin receptor signaling in animals after treatment; format: in vivo; details: for serine phosphorylation of Akt / tyrosine phosphorylation of insulin receptor, insulin substrate 1-IRS-1 and IRS-1: animals; for insulin (receptor) signaling: overall statement
Excerpt: as §1

JNK = JNK activity in liver tissue of obese mice after PBA; format: in vivo, mouse; details: FIG. 21
ob/ob mice [5] = experiment: 4-PBA in ob/ob mice: blood glucose, insulin tolerance test; format: in vivo, mouse; details: for blood glucose levels / insulin sensitivity in vivo: ob/ob mice
Description: A genetic (ob/ob) model of mouse obesity was used to analyze the effects of 4-phenyl butyrate (4-PBA) on insulin sensitivity and hyperglycemia. 10-12 weeks old, male, leptin deficient mice were obtained from Jackson Labs, acclimated by three times injection of PBS (3 times a day) for 4 days, and treated either with intraperitoneal injection of 4-PBA (1 g/kg/day in three divided doses) or phosphate buffer saline (PBS) (3 doses of 100 μl) for a period of 7 days. Fed blood glucose levels (mg/dl) at the 3rd and 7th days of trial (a). Insulin Tolerance Test (ITT) were performed on the 7th day after the first injection (b).
A genetic (ob/ob) model of mouse obesity was used to analyze the effects to 4-phenyl butyrate (4-PBA) on insulin sensitivity and hyperglycemia. 8-10 weeks old, male, leptin deficient mice were obtained from Jackson Labs, acclimated by PBS injection (2 times a day) for 4 days, and treated either with 4-PBA (500 mg/kg/day in two divided doses) or phosphate buffer saline (PBS) (2 doses of 200 μl) for a period of 20 days. Body weight during the treatment period (a). Blood glucose levels (mg/dl) after 6 hours of fasting at day 0 and day 20 (b). Insulin (ng/ml) levels at day 0 and day 20 (c). Insulin tolerance tests were performed at the 15th day of the treatment (d).
Animal Studies and Obesity Models: Adult (10-12 weeks of age) male ob/ob mice and their wild type (WT) littermates were purchased from Jackson Labs. Mice used in the diet-induced obesity model were male C57BL/6. All mice were placed on high fat diet (HFD: 35.5% fat, 20% protein, 32.7% carbohydrates, Bio-Serve) immediately after weaning (at ˜3 weeks of age). The XBP-1^+/− and XBP-1^+/+ mice were on Balb/C genetic background. Insulin and glucose tolerance tests were performed as previously described (Hirosumi et al., Nature 420:333 (2002); incorporated herein by reference). Insulin and C-peptide ELISA were performed according to manufacturer's instructions using mouse standards (Crystal Chem. Inc., Downers Grove, Ill.). Pancreas isolated from 16-week-old mice was fixed in Bouin's fluid and formalin, and paraffin sections were double-stained with guinea pig anti-insulin and rabbit anti-glucagon antibodies. Texas red dye conjugated donkey anti-guinea pig IgG and FITC conjugated Goat anti-rabbit IgG were used as secondary antibodies.

[6] = FIG. 7, animals with insulin resistance and type 2 diabetes, 1 g/kg/day IP

serine phosphorylation of Akt [4] | tyrosine phosphorylation of insulin receptor, insulin substrate 1-IRS-1 and IRS-1 [4] | insulin (receptor) signaling [4] | Molecule | blood glucose (ob/ob mice [1]) | glucose levels (ob/ob mice [2]; [6]) | ER stress (ER stress) | activation of JNK (ER stress) | phosphorylation of IRE-1α (ER stress) | phosphorylation of PERK (ER stress) | other results
 |  |  | CN(C)C(=N)N=C(N)N [metformin] | did not have any effect on blood glucose |  |  |  |  |  | 
 |  |  | C/C=C(/C)C(=O)O[C@H]1C(C)=C2[C@H]([C@@H]1OC(=O)CCCCCCC)[C@@](C)(OC(C)=O)C[C@H](OC(=O)CCC)[C@@]1(O)[C@H]2OC(=O)[C@@]1(C)O [thapsigargin] |  |  |  |  |  |  | insulin receptor signaling (as for tunicamycin) (Fao liver cells): Similar, results were also obtained
 |  |  | trimethylamine N-oxide [TMAO] |  | lowering | reduce ER stress |  |  |  | anti-diabetic effect (ob/ob mice [2]; FIG. 7, ob/ob mice, 1 g/kg/day IP): act as an anti-diabetic agent in vivo; also recorded: anti-diabetic effect; insulin levels (ob/ob mice [2]; animals with insulin resistance and type 2 diabetes, 1 g/kg/day IP): lowering
increased | increased | regulate insulin receptor signaling | C[C@H](CCC(=O)NCCS(=O)(=O)O)[C@H]1CC[C@H]2[C@@H]3[C@@H](O)C[C@@H]4C[C@H](O)CC[C@]4(C)[C@H]3CC[C@]12C [TUDCA, tauroursodeoxycholic acid] |  | reduce blood glucose levels | regulate ER stress in animals; also recorded: reduce ER stress | reduced | reduced | reduced | diabetes (ob/ob mice [3]; 500 mg/kg once a day i.p.): reverses diabetes; blood glucose levels (ob/ob mice [3]; FIG. 6, 500 mg/kg once a day i.p.): reduce blood glucose levels; insulin sensitivity (ob/ob mice [3]; FIG. 6, 500 mg/kg once a day i.p., 500 mg/kg): increases insulin sensitivity; insulin sensitivity (ob/ob mice [2]; FIG. 7): increase insulin sensitivity
 |  |  | O=C([O-])CCCc1ccccc1.[Na+] [sodium 4-phenylbutyrate] | did not have any effect on blood glucose |  |  |  |  |  | 
increased | increased | regulate insulin receptor signaling | O=C(O)CCCc1ccccc1 [PBA, 4-phenyl butyric acid] |  |  | regulate ER stress in animals; also recorded: reduce ER stress | reduced | reduced | reduced | JNK activity in liver tissue (JNK): normalization of JNK activity; blood glucose (ob/ob mice [5]; FIGS. 4 and 5): effective in reducing blood glucose; insulin sensitivity (ob/ob mice [5]; FIGS. 4 and 5): increasing insulin sensitivity; blood glucose levels (ob/ob mice [5]; oral route 500 mg/kg/day in two divided doses, 20 days): lowers blood glucose levels; insulin sensitivity in vivo (ob/ob mice [5]; oral route 500 mg/kg/day, ITT at 15th day): increases insulin sensitivity; blood glucose levels (ob/ob mice [5]; parenteral (intraperitoneal) 1 g/kg/day in three divided doses, 7 days): lowers blood glucose levels; insulin sensitivity in vivo (ob/ob mice [5]; parenteral (intraperitoneal) 1 g/kg/day, ITT on 7th day): increases insulin sensitivity
